Structures can show the parent of a compound that is named as a salt. Where two headings read alike, the source gives them in different places.

Common to all, as to assay: AK assay 384-well format, Prestwick library screening
For one assay, the system named is E. faecium. It counts as cell-based, Enterococcus faecium. To be noted: for fold induction at 50 µM: Enterococcus faecium, 3 h.
In a further assay the test system is P. aeruginosa. Format: cell-based, Pseudomonas aeruginosa. To be noted: for fold induction at 50 µM: Pseudomonas aeruginosa, 3 h.
The next assay has as its system K. pneumoniae. It counts as cell-based, Klebsiella pneumoniae. To be noted: for fold induction at 50 µM: Klebsiella pneumoniae, 3 h.
The subject of the next assay is E. coli. Format: cell-based, Escherichia coli. The settings on record: for fold induction at 50 µM: Escherichia coli, 3 h.
Assay [1] has as its system S. aureus strain USA300-0114. Format: cell-based, Staphylococcus aureus. The settings on record: for fold induction at 50 µM: Staphylococcus aureus, USA300, 3 h.
A further assay deals with E. cloacae. It counts as cell-based, Enterobacter cloacae. To be noted: for fold induction at 50 µM: Enterobacter cloacae, 3 h.
Assay [2] concerns A. baumannii strain 98-37-09. Format: cell-based, Acinetobacter baumannii. To be noted: for fold induction at 50 µM: Acinetobacter baumannii, 983709, 3 h.
[3] abbreviates: 50 μM final drug concentration, 384-well format, […].
[4] abbreviates: 50 μM final drug concentration, 384-well format, cutoff for positive-scoring molecules 3-fold increase, read-out: AK-based Prestwick Library Screening Results, E. coli (increase in extracellular AK activity).
Setting [5] is: 50 μM final drug concentration, 384-well format, cutoff for positive-scoring molecules 3-fold increase.
Where [6] appears, read: planktonic E. faecium, 50 μM final drug concentration, positive cutoff 3-fold increase, read-out: AK-based Prestwick library screening result, E. faecium (fold increase in extracellular AK activity).
Setting [7] is: planktonic P. aeruginosa, 50 μM final drug concentration, positive cutoff 3-fold increase, read-out: AK-based Prestwick library screening result, P. aeruginosa (fold increase in extracellular AK activity).
The mark [8] stands for this setting: planktonic K. pneumoniae, 50 μM final drug concentration, positive cutoff 3-fold increase, read-out: AK-based Prestwick library screening result, K. pneumoniae (fold increase in extracellular AK activity).
Setting [9] is: planktonic E. coli, 50 μM final drug concentration, positive cutoff 3-fold increase, read-out: AK-based Prestwick library screening result, E. coli (fold increase in extracellular AK activity).
Setting [10] is: planktonic S. aureus, 50 μM final drug concentration, positive cutoff 3-fold increase, read-out: AK-based Prestwick library screening result, S. aureus (fold increase in extracellular AK activity).
Setting [11] is: planktonic E. cloacae, 50 μM final drug concentration, positive cutoff 3-fold increase, read-out: AK-based Prestwick library screening result, E. cloacae (fold increase in extracellular AK activity).
Setting [12] is: planktonic A. baumannii, 50 μM final drug concentration, positive cutoff 3-fold increase, read-out: AK-based Prestwick library screening result, A. baumannii (fold increase in extracellular AK activity).

For the molecule `CCC(C)(CN(C)C)OC(=O)c1ccccc1.Cl` (stereo not drawn) [Amyleine hydrochloride], the “AK-based Prestwick Library Screening Results, E. faecium (increase in extracellular AK activity)” value in the assay on E. faecium (setting [3]) was found to be 1.1. Further, in the assay with P. aeruginosa (setting [3]), the “AK-based Prestwick Library Screening Results, P. aeruginosa (increase in extracellular AK activity)” value was found to be 0.9. Besides, the “AK-based Prestwick Library Screening Results, K. pneumoniae (increase in extracellular AK activity)” value with K. pneumoniae (setting [3]) is reported as 0.8. Also, in the assay on E. coli (setting [3]), the “AK-based Prestwick Library Screening Results, E. coli (increase in extracellular AK activity)” value is 1.4. The “AK-based Prestwick Library Screening Results, S. aureus (increase in extracellular AK activity)” value in assay [1] (setting [3]) turned out to be 1.1. For the same molecule, the “AK-based Prestwick Library Screening Results, E. cloacae (increase in extracellular AK activity)” value with E. cloacae (setting [3]) was 1.2. In assay [2] (setting [3]), the “AK-based Prestwick Library Screening Results, A. baumannii (increase in extracellular AK activity)” value amounted to 1.1.
`c1cncc([C@@H]2CCCCN2)c1` [Anabasine]: the fold induction at 50 µM with E. faecium (50 μM final drug concentration, planktonic, […], read-out: AK-based Prestwick Library Screening Results, E. faecium (fold increase in extracellular AK activity)) is 0.9; in the assay with P. aeruginosa (50 μM final drug concentration, planktonic, […], read-out: AK-based Prestwick Library Screening Results, P. aeruginosa (fold increase in extracellular AK activity)) it was 0.9; in the assay on K. pneumoniae (50 μM final drug concentration, planktonic, […], read-out: AK-based Prestwick Library Screening Results, K. pneumoniae (fold increase in extracellular AK activity)) it was 0.8; with E. coli (50 μM final drug concentration, planktonic, […], read-out: AK-based Prestwick Library Screening Results, E. coli (fold increase in extracellular AK activity)), 1; in assay [1] (50 μM final drug concentration, planktonic, […], read-out: AK-based Prestwick Library Screening Results, S. aureus (fold increase in extracellular AK activity)), 0.6; in the assay on E. cloacae (50 μM final drug concentration, planktonic, […], read-out: AK-based Prestwick Library Screening Results, E. cloacae (fold increase in extracellular AK activity)), 1. Also, the fold induction at 50 µM in assay [2] (50 μM final drug concentration, planktonic, […], read-out: AK-based Prestwick Library Screening Results, A. baumannii (fold increase in extracellular AK activity)) was 0.8.
Turning to `C[C@]12CC[C@@H](O)C[C@@H]1CC[C@@H]1[C@@H]2CC[C@]2(C)C(=O)CC[C@@H]12` [Androsterone], the fold induction at 50 µM with E. faecium (read-out: AK-based Prestwick Library Screening Results, E. faecium (increase in extracellular AK activity)) came out at 1; in the assay with P. aeruginosa (read-out: AK-based Prestwick Library Screening Results, P. aeruginosa (increase in extracellular AK activity)), 0.6; with K. pneumoniae (read-out: AK-based Prestwick Library Screening Results, K. pneumoniae (increase in extracellular AK activity)), 0.5; in the assay on E. coli (read-out: AK-based Prestwick Library Screening Results, E. coli (increase in extracellular AK activity)), 0.6; in assay [1] (read-out: AK-based Prestwick Library Screening Results, S. aureus (increase in extracellular AK activity)), 0.5; with E. cloacae (read-out: AK-based Prestwick Library Screening Results, E. cloacae (increase in extracellular AK activity)), 0.7. The fold induction at 50 µM in assay [2] (read-out: AK-based Prestwick Library Screening Results, A. baumannii (increase in extracellular AK activity)) was determined as 0.7.
With `COc1ccc(C[C@H]2NC[C@H](O)[C@H]2OC(C)=O)cc1` [Anisomycin], in the assay with E. faecium (planktonic E. faecium, 50 μM final drug concentration, […]), the “AK-based Prestwick Library Screening Results, E. faecium (increase in extracellular AK activity)” value is 1.0. For the same molecule, in the assay on P. aeruginosa (planktonic P. aeruginosa, 50 μM final drug concentration, […]), the “AK-based Prestwick Library Screening Results, P. aeruginosa (increase in extracellular AK activity)” value stood at 0.7. In the assay with K. pneumoniae (planktonic K. pneumoniae, 50 μM final drug concentration, […]), the “AK-based Prestwick Library Screening Results, K. pneumoniae (increase in extracellular AK activity)” value is 0.5. In addition, the “AK-based Prestwick Library Screening Results, E. coli (increase in extracellular AK activity)” value in the assay on E. coli (planktonic E. coli, 50 μM final drug concentration, […]) is 0.7. For the same molecule, the “AK-based Prestwick Library Screening Results, S. aureus (increase in extracellular AK activity)” value in assay [1] (planktonic S. aureus, 50 μM final drug concentration, […]) was 0.7. In the assay with E. cloacae (planktonic E. cloacae, 50 μM final drug concentration, […]), the “AK-based Prestwick Library Screening Results, E. cloacae (increase in extracellular AK activity)” value is on record as 0.7. Also, the “AK-based Prestwick Library Screening Results, A. baumannii (increase in extracellular AK activity)” value in assay [2] (planktonic A. baumannii, 50 μM final drug concentration, […]) is 0.7.
In the case of `c1ccc(CN(CC2=NCCN2)c2ccccc2)cc1` [Antazoline hydrochloride], the fold induction at 50 µM turned out to be 1 with E. faecium (50 μM final drug concentration, 384-well format, cutoff for positive-scoring molecules 3-fold increase, read-out: AK-based Prestwick Library Screening Results, E. faecium (increase in extracellular AK activity)); 0.7 in the assay with P. aeruginosa (50 μM final drug concentration, 384-well format, cutoff for positive-scoring molecules 3-fold increase, read-out: AK-based Prestwick Library Screening Results, P. aeruginosa (increase in extracellular AK activity)); 0.6 in the assay with K. pneumoniae (50 μM final drug concentration, 384-well format, cutoff for positive-scoring molecules 3-fold increase, read-out: AK-based Prestwick Library Screening Results, K. pneumoniae (increase in extracellular AK activity)); 0.7 with E. coli (setting [4]); 0.8 in assay [1] (50 μM final drug concentration, 384-well format, cutoff for positive-scoring molecules 3-fold increase, read-out: AK-based Prestwick Library Screening Results, S. aureus (increase in extracellular AK activity)); 0.8 in the assay on E. cloacae (50 μM final drug concentration, 384-well format, cutoff for positive-scoring molecules 3-fold increase, read-out: AK-based Prestwick Library Screening Results, E. cloacae (increase in extracellular AK activity)). Moreover, in assay [2] (50 μM final drug concentration, 384-well format, cutoff for positive-scoring molecules 3-fold increase, read-out: AK-based Prestwick Library Screening Results, A. baumannii (increase in extracellular AK activity)), the fold induction at 50 µM was found to be 0.8.
With `Cc1c(O)c(=O)n(-c2ccccc2)n1C` [Antipyrine, 4-hydroxy], the “AK-based Prestwick Library Screening Results, E. faecium (increase in extracellular AK activity)” value in the assay on E. faecium (setting [5]) is on record as 1.0. In addition, in the assay on P. aeruginosa (setting [5]), the “AK-based Prestwick Library Screening Results, P. aeruginosa (increase in extracellular AK activity)” value is reported as 0.8. In addition, the “AK-based Prestwick Library Screening Results, K. pneumoniae (increase in extracellular AK activity)” value in the assay with K. pneumoniae (setting [5]) was 0.7. In addition, in the assay on E. coli (setting [5]), the “AK-based Prestwick Library Screening Results, E. coli (increase in extracellular AK activity)” value is recorded as 0.9. Moreover, the “AK-based Prestwick Library Screening Results, S. aureus (increase in extracellular AK activity)” value in assay [1] (setting [5]) is 0.7. In the assay on E. cloacae (setting [5]), the “AK-based Prestwick Library Screening Results, E. cloacae (increase in extracellular AK activity)” value turned out to be 1.0. In assay [2] (setting [5]), the “AK-based Prestwick Library Screening Results, A. baumannii (increase in extracellular AK activity)” value is reported as 0.8.
As to `Cc1cc(=O)n(-c2ccccc2)n1C` [Antipyrine], the fold induction at 50 µM came to 1 in the assay on E. faecium (50 μM final drug concentration, 384-well format, […], read-out: AK-based Prestwick Library Screening Results, E. faecium (increase in extracellular AK activity)); 0.8 in the assay with P. aeruginosa (50 μM final drug concentration, 384-well format, […], read-out: AK-based Prestwick Library Screening Results, P. aeruginosa (increase in extracellular AK activity)); 0.7 with K. pneumoniae (50 μM final drug concentration, 384-well format, […], read-out: AK-based Prestwick Library Screening Results, K. pneumoniae (increase in extracellular AK activity)); 0.9 with E. coli (setting [4]); 0.7 in assay [1] (50 μM final drug concentration, 384-well format, […], read-out: AK-based Prestwick Library Screening Results, S. aureus (increase in extracellular AK activity)); 1 with E. cloacae (50 μM final drug concentration, 384-well format, […], read-out: AK-based Prestwick Library Screening Results, E. cloacae (increase in extracellular AK activity)). The fold induction at 50 µM in assay [2] (50 μM final drug concentration, 384-well format, […], read-out: AK-based Prestwick Library Screening Results, A. baumannii (increase in extracellular AK activity)) was 1.
Take `CN[C@@H]1[C@@H](O[C@H]2O[C@H](CO)[C@@H](N)[C@H](O)[C@H]2O)OC2C[C@@H](N)[C@@H](O[C@H]3[C@H](O)[C@@H](O)[C@H](N)C[C@@H]3N)OC2[C@@H]1O` (stereo partly drawn) [Apramycin]: the fold induction at 50 µM amounted to 1 in the assay with E. faecium (setting [6]); 1.1 with P. aeruginosa (setting [7]); 0.8 in the assay with K. pneumoniae (setting [8]); 1.2 with E. coli (setting [9]); 0.9 in assay [1] (setting [10]); 1.4 in the assay on E. cloacae (setting [11]). Further, the fold induction at 50 µM in assay [2] (setting [12]) stood at 1.
With `OC[C@H]1O[C@@H](Oc2ccc(O)cc2)[C@H](O)[C@@H](O)[C@@H]1O` [Arbutin], the fold induction at 50 µM with E. faecium (setting [6]) stood at 0.9; in the assay on P. aeruginosa (setting [7]) it was 1.1; in the assay on K. pneumoniae (setting [8]), 1.2; in the assay on E. coli (setting [9]), 1.2; in assay [1] (setting [10]) it was 1.1; in the assay with E. cloacae (setting [11]), 1.4. In addition, in assay [2] (setting [12]), the fold induction at 50 µM was 1.5.

Source of the values: US10004701B2, “Methods and compositions for treating infection” (UNIVERSITY OF ROCHESTER, priority 2012, dated 2018).
